Source: US20150309031A2, “COMPOSITIONS AND METHODS FOR PROGNOSIS AND TREATMENT OF CANCER” (NOVAZOI THERANOSTICS, priority 2013, published 2015)

Tests used:
Format in all cases: cell-based
MDA-MB-231 (231) cells = experiment: subG1 (hypodiploid) fraction by flow cytometry, 231 cells
Procedure: (§1) Trypsinized cells were resuspended in PBS at 10^6 cells/ml. Cells were then fixed by addition of ice-cold 70% ethanol. Ethanol-fixed cells were kept overnight at 4° C. before staining. Cells were pelleted and washed twice with PBS. Cell pellets were incubated for an hour at room temperature with mouse anti-MPM-2 antibody (Millipore, Mass., USA), followed by 1 h incubation with Alexa-488 anti-mouse secondary antibody (Life Technologies, NY, USA). Finally cells were washed, pelleted and resuspended in propidium iodide-containing isotonic buffer (0.1 mg/mL) and 0.5% Triton X-100. Cell cycle distribution was determined by flow cytometry using an LSR Fortessa Flow cytometer (BD Biosciences, CA, USA) and analyzed using Flowjo software (Tree Star, OR, USA). […] The duration, highest degree, and rapidity of onset of MA varied between drugs, drug concentrations, and cell lines (FIGS. 2A, 2B). In general, the maximum MA achieved was less pronounced in Nos- and PJ-treated cells (FIGS. 2A, 2B). Drug-induced onset of MA was corroborated by substantial increases in cyclin B1 levels in all cell lines (FIG. 2C). […] Instances where the subG1 fraction was elevated without cleaved caspase-3 may either represent caspase-independent cell death or the presence of hypodiploid cells whose fate is unclear.

HeLa cells = experiment: subG1 (hypodiploid) fraction by flow cytometry, HeLa cells
Procedure: as §1

PC3 cells = experiment: subG1 (hypodiploid) fraction by flow cytometry, PC3 cells
Procedure: as §1

[1] = system: adult human dermal fibroblasts (HDF); experiment: subG1 (hypodiploid) fraction by flow cytometry, HDFs
[2] = system: mammary fibrocystic (MCF10A) cells; experiment: subG1 (hypodiploid) fraction by flow cytometry, MCF10A cells; settings: for change of peak subG1 percent compared to controls (in words): MCF10A cells; for Peak subG1 percent over 48 h: MCF10A
MCF10A cells = experiment: Centrosome amplification (CA) by microscopy, MCF10A cells
Procedure: (§2) Consequently, CA was assessed in cultures treated with different concentrations of declustering drugs for 6, 12, 18, or 24 h and untreated controls via microscopy. Centrosomes were identified by γ-tubulin and centrin-2 colocalization at discrete foci. […] The peak percent CA detected over 24 h is shown in FIG. 6 (only statistically significant (P<0.05) increases over control values are represented in the Figures). Representative confocal micrographs of CA in interphase and mitotic cells, both control and drug treated, are depicted in FIG. 7. No significant correlations between the degree of CA (FIG. 5A) and the expression levels of PLK4, Cyclin E, and Aurora A were found (FIG. 4).
(§3) To determine whether the CA-inducing activity of declustering drugs is restricted to cancer cells, two non-malignant cell lines, mammary fibrocystic (MCF10A) cells and adult human dermal fibroblasts were treated with these drugs. Neither one of RBN, GF or PJ induced CA or cell death (Table 8) in these cell lines. […] In comparison, 10 and 25 μM RBN increased peak CA over controls in interphase cells (p<0.001 and p=0.001, respectively), with the lower concentration dramatically augmenting peak CA to 56% of cells versus 15% for the higher dose (FIG. 9B). Only 10 but not 25 μM RBN increased the extent of CA in mitotic cells, and this upregulation was only slight (10%, p=0.041).

[3] = system: human dermal fibroblasts (HDFs); experiment: Centrosome amplification (CA) by microscopy, HDFs
Procedure: as §2, §3

HDFs and MCF10A cells = experiment: Spindle multipolarity (MP) in non-malignant cell lines
231 cells = experiment: Centrosome amplification (CA) by microscopy, 231 cells; settings: 25 μM
Procedure: Consequently, CA was assessed in cultures treated with different concentrations of declustering drugs for 6, 12, 18, or 24 h and untreated controls via microscopy. […] The peak percent CA detected over 24 h is shown in FIG. 6 (only statistically significant (P<0.05) increases over control values are represented in the Figures). Representative confocal micrographs of CA in interphase and mitotic cells, both control and drug treated, are depicted in FIG. 7. […] To better understand the “potency” of drug-induced CA with time, the average fold change in CA over controls over 24 h was assessed (FIG. 5A), whereby the extent of CA across time points (i.e., 6, 12, 18, and 24 h) was averaged and then divided by the extent of CA in control (i.e., 0 h). […] For Nos and BN, there was no major difference in CA levels in interphase versus mitotic cells.

COC1=CC(=O)C[C@@H](C)[C@]12Oc1c(Cl)c(OC)cc(OC)c1C2=O [GF, griseofulvin]
Peak subG1 percent over 48 h (MDA-MB-231 (231) cells; 25 μM): 62.0% | maximum subG1 fraction relative to control (MDA-MB-231 (231) cells; 25 μM): 6.4 × control | Peak subG1 percent over 48 h (MDA-MB-231 (231) cells; 50 μM): 60.0% | Peak subG1 percent over 48 h (HeLa cells; 25 μM): 59.5% | Peak subG1 percent over 48 h (HeLa cells; 50 μM): 79.0% | maximum subG1 fraction relative to control (HeLa cells; 50 μM): 4.3 × control | Peak subG1 percent over 48 h (PC3 cells; 25 μM): 33.7% | Peak subG1 percent over 48 h (PC3 cells; 50 μM): 39.5% | maximum subG1 fraction relative to control (PC3 cells; 50 μM): 16.3 × control | Peak subG1 percent over 48 h ([1]; 25 μM): 32.9% | Peak subG1 percent over 48 h ([1]; 50 μM): 38.3% | change of peak subG1 percent compared to controls (in words) [2]: did increase peak SubG1 in MCF10A cells compared to controls | Peak subG1 percent over 48 h ([2]; 25 μM): 22.7% | Peak subG1 percent over 48 h ([2]; 50 μM): 35.1% | peak interphase CA (MCF10A cells; interphase, 25 and 50 μM): 13-16% | change of CA in mitotic cells (in words) (MCF10A cells; mitotic, 25 and 50 μM): no increase was observed in mitotic cells | peak CA in interphase cells ([3]; interphase, 25 and 50 μM): 14-15% | induction of MP over control levels (HDFs and MCF10A cells): significantly induce MP over control levels

COc1ccc2c(c1OC)C(=O)O[C@@H]2[C@H]1c2c(cc3c(c2OC)OCO3)CCN1C [Nos, noscapine]
Peak subG1 percent over 48 h (MDA-MB-231 (231) cells; 10 μM): 26.3% | Peak subG1 percent over 48 h (MDA-MB-231 (231) cells; 25 μM): 43.9% | Peak subG1 percent over 48 h (HeLa cells; 10 μM): 25.0% | Peak subG1 percent over 48 h (HeLa cells; 25 μM): 50.1% | Peak subG1 percent over 48 h (PC3 cells; 10 μM): 29.9% | Peak subG1 percent over 48 h (PC3 cells; 25 μM): 32.7% | Peak subG1 percent over 48 h ([1]; 10 μM): 14.8% | Peak subG1 percent over 48 h ([1]; 25 μM): 11.2% | change of peak subG1 percent compared to controls (in words) [2]: did not cause a significant increase in peak subG1 percent compared to controls | Peak subG1 percent over 48 h ([2]; 10 μM): 4.1% | Peak subG1 percent over 48 h ([2]; 25 μM): 4.2% | induction of significant CA (231 cells): failed to induce significant CA | change of CA over control levels (in words) (MCF10A cells; interphase and mitotic cells, over 24 h): neither concentrations of Nos or BN significantly increased CA over control levels | change of CA over controls (in words) ([3]; any concentration or time point assessed): did not significantly increase the extent of CA over controls
